One may read the pIC50 as the negative decadic logarithm of the IC50, by convention in mol/L. For orientation: pKd means the Kd on a negative log10 scale, so that one unit is a factor of ten. High values mean a small Kd, low ones a large Kd.

Structures are written as SMILES. pIC50, pKd: −log10 of the molar value.

In the first test the target is T1, Acetylcholinesterase (Mus musculus, UniProt P21836).
T1 sequence (P21836 whole entry): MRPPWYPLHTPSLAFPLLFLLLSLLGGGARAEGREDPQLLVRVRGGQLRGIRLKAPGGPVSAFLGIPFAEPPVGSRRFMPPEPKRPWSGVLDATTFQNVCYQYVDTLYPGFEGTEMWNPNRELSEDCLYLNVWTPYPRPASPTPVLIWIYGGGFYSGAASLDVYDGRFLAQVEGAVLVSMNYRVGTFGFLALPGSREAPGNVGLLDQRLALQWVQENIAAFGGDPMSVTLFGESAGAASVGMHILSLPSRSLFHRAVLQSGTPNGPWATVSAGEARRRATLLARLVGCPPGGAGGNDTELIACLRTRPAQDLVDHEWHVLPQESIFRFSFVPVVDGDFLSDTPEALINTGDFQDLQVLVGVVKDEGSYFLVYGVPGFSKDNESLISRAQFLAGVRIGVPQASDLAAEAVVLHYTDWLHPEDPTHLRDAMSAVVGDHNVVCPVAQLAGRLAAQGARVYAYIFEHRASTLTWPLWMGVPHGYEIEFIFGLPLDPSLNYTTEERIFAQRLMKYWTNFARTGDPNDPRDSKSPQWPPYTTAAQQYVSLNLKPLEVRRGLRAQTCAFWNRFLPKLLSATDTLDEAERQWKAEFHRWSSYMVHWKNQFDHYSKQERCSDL
Compound `C/C=C1\[C@H]2C=C(C)C[C@]1(N)c1ccc(=O)[nH]c1C2` [HUPERZINE A] showed a pIC50 of 7.09.

The target of a further test is T1, Acetylcholinesterase. The test can be described thus: Inhibition of mouse recombinant AChE using acetylthiocholine iodide as substrate by Ellman's method. Background: In Ellman's method for cholinesterases, released thiocholine reacts with DTNB.
On to `CCN(CC)CCNS(=O)(=O)c1ccc(Cl)cc1`, for which the negative-log IC50 (pIC50) was 4.06.

`CCN(CC)CCNS(=O)(=O)c1cccc(Cl)c1`: the pIC50 was 4.74. On the same count and under the same terms, the same measure for `CCN(CC)CCNS(=O)(=O)c1ccc(OC)cc1`: 3.92. Take `CCN(CC)CCNS(=O)(=O)c1ccc(C)cc1`: the pIC50 is 3.87. In the case of `CCN(CC)CCNS(=O)(=O)c1ccc(F)cc1`, the negative-log IC50 (pIC50) was 4.21. Turning to `CCN(CC)CCNS(=O)(=O)c1ccc([N+](=O)[O-])cc1`, the negative-log IC50 (pIC50) was 4.02. As for `CCN(CC)CCNS(=O)(=O)c1ccc(Cl)cc1F`, the pIC50 is 4.04. Consider `CCN(CC)CCNS(=O)(=O)c1ccc(F)c(F)c1`, for which the pIC50 is 4.30.

Regarding `CCN(CC)CCNS(=O)(=O)c1cccc2ccccc12`, the pIC50 is 4.36. Turning to `CCN(CC)CCNS(=O)(=O)c1ccc2ccccc2c1`, the pIC50 was less than 3.15. For the compound `CCN(CC)CCNS(=O)(=O)c1ccc(-c2ccc(Cl)cc2)cc1`, the pIC50 was less than 3.15.

With `CCN(CC)CCNS(=O)(=O)Cc1ccccc1`, the pIC50 was 3.86. As to `CCN(CC)CCNS(=O)(=O)Cc1ccc(F)cc1`, the pIC50 is 4.40. As for `CCN(CC)CCNS(=O)(=O)Cc1ccc(Cl)cc1`, the pIC50 was 4.92. For `CCN(CC)CCNS(=O)(=O)Cc1ccc(C(F)(F)F)cc1`, the pIC50 is 4.92. As for `CCN(CC)CCNS(=O)(=O)Cc1ccc(Br)cc1`, the negative logarithm of the IC50 (pIC50) is 5.00.

As to `CCN(CC)CCNS(=O)(=O)Cc1ccc(Cl)c(Cl)c1`, the pIC50 is 5.15. `CCN(CC)CCNS(=O)(=O)c1ccccc1`: the pIC50 is 4.51. Same read-out and setting: the figure for `CCN(CC)CCNS(=O)(=O)c1ccccc1F` is 4.39. On the same count and under the same terms, the same measure for `CCN(CC)CCNS(=O)(=O)c1cccc(OC)c1`: 5.15.

On to `CCN(CC)CCNS(=O)(=O)c1cccc(C(F)(F)F)c1`, for which the pIC50 is 4.66.

The next test concerns the target T1, Acetylcholinesterase. The test can be described thus: Binding affinity to mouse AChE by isothermal titration calorimetry.
In turn, `CCN(CC)CCNS(=O)(=O)c1cccc(Cl)c1` showed a pKd of 4.35. As to `CCN(CC)CCNS(=O)(=O)Cc1ccc(Cl)cc1`, the pKd is 4.95. On to `CCN(CC)CCNS(=O)(=O)Cc1ccc(C(F)(F)F)cc1`, for which the pKd was 5.04. Same read-out and setting: the same measure for `CCN(CC)CCNS(=O)(=O)c1cccc(C(F)(F)F)c1`: 4.83.

Another test addresses T1, Acetylcholinesterase. The test can be described thus: Inhibition of wild type mouse AChE expressed in HEK293 cells using ATCh as substrate. The format is cell-based.
Regarding `CC[N+](C)(CC)CCC[n+]1c(-c2ccccc2)c2cc(N)ccc2c2ccc(N)cc21` [PROPIDIUM], the pIC50 is 5.96.

These data come from ChEMBL document CHEMBL3085720, “Divergent structure-activity relationships of structurally similar acetylcholinesterase inhibitors” (J Med Chem, 2013).
